Test results from patent publication US12240854B2, “TRAF 6 inhibitors” (Helmholtz Zentrum München - Deutsches Forschungszentrum für …, priority 2018, dated 2025).
Entries after “also recorded” stand apart in the source; their conditions may differ.

Tests used:
[1] = molecular target: T1, MURF/TRIM63 (Homo sapiens, UniProt Q969Q1); assay: In vitro ubiquitination assay, TRIM63 ubiquitin ligase kit; assay type: biochemical; conditions: K48 chain formation
T1 construct: purchased Boston Biochem
Procedure: (§1) For analysis of cIAP1, MDM2, TRIM63, RNF4, ITCH and E6AP mediated poly-ubiquitination, the respective ubiquitin ligase kit from Boston Biochem (K-102, K-260, K-200B, K-220, K-240 and K-270) was used. Here, reaction buffer, E1, E2 and E3 enzyme (and p53 substrate in case of MDM2) were mixed and pre-incubated with compound or DMSO for 5 minutes at room temperature before adding Mg^2+-ATP and mono-ubiquitin for reaction start. Ubiquitination was visualized by Western Blot analyses.

[2] = molecular target: T2, ITCH (Homo sapiens, UniProt Q96J02); assay: In vitro ubiquitination assay, ITCH ubiquitin ligase kit; assay type: biochemical
T2 construct: purchased Boston Biochem
Procedure: as §1

[3] = test system: TCR target genes IL-2 and TNFα in Jurkat T-cells; assay: mRNA expression (qRT-PCR) in Jurkat T-cells; assay type: cell-based, human; conditions: PMA/Ionomycin
Procedure: For MEF cells, 1.2×10^5 cells per sample were seeded, treated with compound for 6 hours and stimulated with either IL-1β or TNFα for 60 minutes. Jurkat T-cells and primary mouse CD4^+ T-cells were seeded at 2×10^5 cells per sample, also treated with compound for 6 hours and stimulated with PMA/lonomycin for 3 hours. RNA was isolated according to the manufacturer's protocol of the Qiagen RNeasy Kit (MEF cells) or the STRATEC INVITRAP® SPIN UNIVERSAL RNA MINI KIT (Jurkat T-cells). The isolation of mRNA from […] white adipose tissue from DIO mice was performed using TRIzol® Reagent according to manufacturer's instruction. To clear the isolated RNA from genomic DNA, samples (up to 5 μg RNA) were treated with RQ1 RNase-Free DNaseI (Promega) as described in the technical manual. For the reverse transcription of RNA into cDNA, the DNaseI digested RNA samples were processed using the SuperScript III First Strand cDNA Synthesis System (Invitrogen/ThermoFisher Scientific) following the manufacturer's protocol. […] For quantification of cDNA in the samples, the LightCylcer480 (Roche) and the KAPA SYBR FAST qPCR Kit were used. For relative quantification, the ΔΔCp method first described by Pfaffl (Pfaffl, M. W., A new mathematical model for relative quantification in real-time RT-PCR. Nucleic Acids Res, 2001. 29(9): p. e45) was applied.

[4] = test system: IL-2 and TNFα secretion of Jurkat T-cells; assay: ELISA cytokine secretion, Jurkat T-cells; assay type: cell-based, human
Procedure: (§2) For measurement of cytokine secretion, 2×10^5 Jurkat T-cells or primary CD4^+ T-cells or human PBMCs per sample were seeded, treated with compound for 6 hours and stimulated as indicated. 20 hours after stimulation, supernatants were harvested and analyzed with the IL-2, IL-1β and TNFα Ready-Set-Go! ELISA (2nd Generation) kits provided by Affymatrix eBioscience.

[5] = test system: MEF cells; assay: CellTiter-Glo viability assay, MEF cells; assay type: cell-based, mouse; conditions: 6 or 24 hours incubation
Procedure: (§3) For cell viability experiments using the CellTiter-Glo® 2.0 system (Promega), MEF cells (1.2×10^3 cells/well), HepG2 cells (4×10^3 cells/well) and Jurkat T-cells (5×10^3 cells/well) were seeded in 384 well plates. After 18 hours, cells were treated with compounds using the Sciclone G3 automation system. After 6 or 24 hours incubation, the luciferase measurement was performed according to the manufacturer's manual.

[6] = test system: Jurkat T-cells; assay: CellTiter-Glo viability assay, Jurkat T-cells; assay type: cell-based, human; conditions: 6 or 24 hours incubation
Procedure: as §3

[7] = ADME: microsomal stability; assay type: in vitro ADME
Procedure: (§4) All ADME (plasma stability, plasma protein binding, microsomal stability, Log D, Caco-2 assay, CYP450 inhibition and hERG predictor assay) as well as pharmacokinetic studies (Tmax, Cmax, AUC0-240min, Mean Residence Time, Elimination half life, Elimination rate constant, Volume of Distribution and Clearance) of C25-140 (compound 3) were conducted by Bienta Enamine Biology Services of Bienta/Enamine Ltd.

[8] = test system: Caco-2; assay: ADME: Caco-2 assay; assay type: in vitro ADME
Procedure: as §4

[9] = molecular target: T3, hERG (Homo sapiens, UniProt Q12809); assay: ADME: hERG predictor assay; assay type: in vitro ADME
T3 construct: Bienta Enamine Biology Services
Procedure: as §4

[10] = test system: 80 cancer cell lines; assay: Omniscreen cancer cell line panel, CellTiter-Glo; assay type: cell-based; conditions: 9 dose levels from 80 μM, 72 hours
Procedure: The effect of C25-140 on cell viability of 80 cancer cell lines using the CellTiter-Glo luminescent cell viability assay was conducted at CrownBioscience Inc. at the testing facility in Beijing. Here, 80 selected cell lines were cultured in media supplemented with 10-15% FBS, in the temperature of 37° C., 5% CO2 and 95% humidity. Culture medium was purchased from GIBCO or Sigma, USA. The cells were treated with C25-140 in 9 dose levels starting at 80 μM with 3.16-fold serial dilutions. Cisplatin served as a reference control and started with a top working concentration of 100 μM. Test samples were incubated for 72 hours and cell viability was measured by the CellTiter-Glo assay.

[11] = test system: primary human peripheral blood mononuclear cells (PBMCs); assay: Human PBMC cytokine secretion (ELISA); assay type: cell-based
Procedure: as §2
For isolation of peripheral blood mononuclear cells (PBMCs) from 50 mL human blood of three different donors, blood was mixed with 800 units of Heparin (Sigma-Aldrich) and centrifuged at 300×g for 10 minutes without brake. After removal of the plasma fraction, buffy coat was diluted in 2 volumes PBS and added on top of 15 ml Lymphoprep (STEMCELL technologies). After centrifugation at 160×g for 20 minutes at room temperature without brake, platelets were removed and the cell suspension was centrifuged again at 350×g for 20 minutes without brake. Mononuclear cells from the intermediate layer were transferred to a new falcon and washed 3 times in PBS supplemented with 0.1% BSA and 2 mM EDTA. In the end, cells were resuspended in RPMI medium containing 10% FCS, 1% Penicillin/Streptomycin and 50 μM β-mercaptoethanol. Per sample, 2×10^5 cells were seeded and treated with compound for 6 hours. The cells were stimulated with either 1 μg/ml Lipopolysaccharide (LPS) or CD3/CD28 (1 μg hCD3 (IgG2A), 4 μg hCD28 (IgG1), […] and […]) or 20 ng/IL-1β. Supernatants for analysis of cytokine secretion were harvested 20 hours after stimulation.

T1 sequence (Q969Q1 whole entry): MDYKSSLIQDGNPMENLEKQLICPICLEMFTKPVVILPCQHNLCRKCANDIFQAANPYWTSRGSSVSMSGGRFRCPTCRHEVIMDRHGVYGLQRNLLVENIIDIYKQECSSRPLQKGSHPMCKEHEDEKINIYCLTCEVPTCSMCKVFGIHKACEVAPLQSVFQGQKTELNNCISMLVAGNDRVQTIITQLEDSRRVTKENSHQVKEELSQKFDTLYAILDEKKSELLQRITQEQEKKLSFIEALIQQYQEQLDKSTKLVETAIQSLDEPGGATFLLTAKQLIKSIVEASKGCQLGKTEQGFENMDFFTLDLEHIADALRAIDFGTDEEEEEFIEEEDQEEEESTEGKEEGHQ
T2 sequence (Q96J02 whole entry): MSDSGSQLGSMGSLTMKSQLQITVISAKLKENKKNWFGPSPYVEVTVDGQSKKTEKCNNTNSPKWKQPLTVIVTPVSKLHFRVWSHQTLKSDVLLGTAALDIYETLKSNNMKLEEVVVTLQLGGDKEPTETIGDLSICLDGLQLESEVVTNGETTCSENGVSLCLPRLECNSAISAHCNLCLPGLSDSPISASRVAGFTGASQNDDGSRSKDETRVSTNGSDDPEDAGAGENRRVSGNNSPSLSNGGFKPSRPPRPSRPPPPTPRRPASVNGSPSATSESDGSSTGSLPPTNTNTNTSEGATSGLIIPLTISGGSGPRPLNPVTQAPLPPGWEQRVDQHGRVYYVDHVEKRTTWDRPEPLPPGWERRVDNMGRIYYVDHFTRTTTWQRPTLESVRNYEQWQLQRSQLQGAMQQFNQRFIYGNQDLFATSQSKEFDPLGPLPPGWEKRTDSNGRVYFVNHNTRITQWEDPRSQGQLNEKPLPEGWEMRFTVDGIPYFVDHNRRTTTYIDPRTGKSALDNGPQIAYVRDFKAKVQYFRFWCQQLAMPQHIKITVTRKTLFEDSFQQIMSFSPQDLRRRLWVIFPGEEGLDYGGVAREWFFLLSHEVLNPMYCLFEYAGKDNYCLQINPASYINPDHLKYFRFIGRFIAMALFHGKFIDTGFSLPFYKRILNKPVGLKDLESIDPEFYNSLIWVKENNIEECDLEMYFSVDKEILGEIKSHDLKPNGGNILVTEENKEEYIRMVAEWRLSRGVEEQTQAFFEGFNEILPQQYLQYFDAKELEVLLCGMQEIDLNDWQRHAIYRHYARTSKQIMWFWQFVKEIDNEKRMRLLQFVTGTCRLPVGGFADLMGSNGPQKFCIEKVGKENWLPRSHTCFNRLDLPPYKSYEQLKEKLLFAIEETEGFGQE
T3 sequence (Q12809 whole entry): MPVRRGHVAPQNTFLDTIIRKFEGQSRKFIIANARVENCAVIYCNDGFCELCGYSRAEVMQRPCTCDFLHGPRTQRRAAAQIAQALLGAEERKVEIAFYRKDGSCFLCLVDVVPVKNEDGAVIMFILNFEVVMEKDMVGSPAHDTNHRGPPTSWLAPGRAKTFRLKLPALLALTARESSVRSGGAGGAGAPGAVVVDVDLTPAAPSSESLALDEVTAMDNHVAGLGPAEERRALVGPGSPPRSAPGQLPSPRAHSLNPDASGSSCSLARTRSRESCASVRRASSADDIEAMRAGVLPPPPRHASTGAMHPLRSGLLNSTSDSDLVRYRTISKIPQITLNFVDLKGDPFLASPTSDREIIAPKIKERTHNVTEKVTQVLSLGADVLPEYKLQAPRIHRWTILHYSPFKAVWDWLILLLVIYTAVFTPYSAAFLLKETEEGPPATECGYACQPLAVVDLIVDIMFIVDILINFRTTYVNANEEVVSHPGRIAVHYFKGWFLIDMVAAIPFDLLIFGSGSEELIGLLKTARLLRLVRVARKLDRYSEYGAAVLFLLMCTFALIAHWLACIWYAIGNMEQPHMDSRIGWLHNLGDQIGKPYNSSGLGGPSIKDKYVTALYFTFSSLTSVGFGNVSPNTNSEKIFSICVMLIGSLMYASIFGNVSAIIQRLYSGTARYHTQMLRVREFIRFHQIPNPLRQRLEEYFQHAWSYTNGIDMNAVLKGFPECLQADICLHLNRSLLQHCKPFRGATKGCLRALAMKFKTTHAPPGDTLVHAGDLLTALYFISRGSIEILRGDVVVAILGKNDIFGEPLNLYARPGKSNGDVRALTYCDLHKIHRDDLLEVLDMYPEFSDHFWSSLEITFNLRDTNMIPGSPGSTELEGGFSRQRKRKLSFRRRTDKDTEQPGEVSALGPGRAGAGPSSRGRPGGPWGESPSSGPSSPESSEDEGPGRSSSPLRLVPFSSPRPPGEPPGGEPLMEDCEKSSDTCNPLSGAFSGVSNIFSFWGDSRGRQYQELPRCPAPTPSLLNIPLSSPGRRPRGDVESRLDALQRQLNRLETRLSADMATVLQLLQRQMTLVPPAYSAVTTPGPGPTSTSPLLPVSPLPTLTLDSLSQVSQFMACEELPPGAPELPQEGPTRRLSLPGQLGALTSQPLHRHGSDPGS

## Cc1nn(-c2ccc3nnc(C)n3n2)c(C)c1CCC(=O)N1CCC(Cc2ccccc2)CC1 [Example C25-140, 1-(4-Benzylpiperidin-1-yl)-3-(3,5-dimethyl-1-(3-methyl-[1,2,4]-triazolo-[4,3-b]-pyridazin-6-yl)-1H-pyrazol-4-yl)-propan-1-one]
[1]
  S5A ubiquitination by MURF/TRIM63: not influenced; also recorded: not affected
[2]
  ITCH auto-ubiquitination: not influenced; also recorded: not affected
[3]
  mRNA levels of TCR target genes IL-2 and TNFα: reduced; also recorded: dose-dependently decreased
[4]
  cytokine secretion of IL-2 and TNFα: reduced; also recorded: dose-dependently decreased
[5]
  metabolic activity and cell viability: did not considerably impact cell viability; also recorded: does not considerably affect metabolic activity and cell viability up to 50 μM; also recorded: at the highest dose of 100 μM toxicity is noticeable
[6]
  metabolic activity and cell viability: did not considerably impact cell viability; also recorded: does not considerably affect metabolic activity and cell viability up to 50 μM; also recorded: at the highest dose of 100 μM toxicity is noticeable
[7]
  microsomal stability: stable
[8]
  Caco-2 permeability: good penetration of the Caco-2 layer
[9]
  hERG inhibition: does not very much inhibit hERG
[10]
  viability of control cell lines HS-5 and MCF 10A: not affected at all
[10]; 78 cancer cell lines
  viability of cancer cell lines: major effect is on cancer cells of blood origin; also recorded: Various cancer cell lines died; also recorded: Major effects were visible in cancer cells of blood origin
[11]; CD3/CD28 stimulation
  secretion of IL-2 and TNFα: decreased levels of IL-2 and TNFα secretion
[11]; IL-1β stimulation
  secretion of IL-6 and TNFα: reduced secretion; also recorded: attenuated
[11]; LPS stimulation
  secretion of IL-1β and TNFα: reduced secretion; also recorded: reduced levels of IL-1β and TNFα cytokines
